In patent publication US20240245702A1, “Inhibition of Lysine Demethylase 1 (Lsd1) Induces Differentiation of Hair Cells” (Massachusetts Eye and Ear Infirmary, priority 2018, published 2024):

What was measured:
Format in all cases: cell-based, mouse
LCPs = test: RNA sequencing of LCP organoids with and without pargyline
Procedure: RNA sequencing. After RNA extractions were performed using the RNeasy Micro Kit (QIAGEN), the library preparation and RNA-sequencing was performed at the Dana Farber Cancer Institute Molecular Biology Core Facility. In brief, cDNA was synthesized from 2.5 ng of RNA using SMARTer V4 Kit (Clontech). Following fragmentation using M220 Focused-Ultrasonicator (Covaris), 2 ng of sheared cDNA was taken for library preparation using ThruPLEX DNA-seq kit (Rubicon Genomics). NextSeq500 Single-End 75 bp (SE75) Sequencing (Illumina) was performed on all 12 samples in one lane after they were indexed and pooled in equimolar to ensure 20-30 million reads per sample. Reads were aligned to mm10 augmented with Ensembl gene build 75 with STAR v2.5.2b (Dobin et al., 2013). Reads and alignments were assessed for quality using FastQC. Differential expression was evaluated using DESeq2. Genes were called differentially expressed when the absolute value of the fold change was >1.25 and FDR, was smaller than 0.05. Subsequent pathway analysis was performed using Ingenuity Pathway Analysis software (Qiagen).
The effect of pargyline on the differentiation of hair cells could be broad and we therefore evaluated its effect on the gene expression patterns of Lsd1 inhibitor-treated and untreated samples. The samples analyzed included the undifferentiated organoids following expansion (DO) and the differentiated organoids following 10 days of differentiation, with and without pargyline treatment (D10). […] In addition, 90% of the genes aligned to the genome and over 22,000 genes were detected in each sample. […] The times here refer to the beginning and end of differentiation and the finding was that most of the difference between samples was due to the 10 days of differentiation. Consistently, the principle component analysis (PCA) clustered the samples by the time of differentiation (responsible for 62% of the variation between samples) and the treatment (20% of the variation: FIG. 10B). Lsd1 inhibition in the presence of CHIR99021 altered gene expression and caused the pargyline-treated samples to cluster separately from those treated with CHIR99021 alone.
Differential expression analysis of the samples was also performed using DESeq2 (Love et al., 2014). […] We further compared the gene expression profiles of the samples. Compared to the undifferentiated (DO), approximately […]) and 3365 genes were differentially expressed in the D10 or D10+pargyline samples, respectively. The addition of pargyline compared to the untreated samples altered the expression of approximately 474 genes (padj<0.05, fold change >1.25).
Gene set enrichment analysis (GSEA) using gene sets associated with biological process gene ontology terms (Subramanian et al., 2005) was next performed to gain insight into the relevant pathways altered in this dataset. The analysis accounts for coordinated differential expression over pre-defined gene sets, instead of changes in individual genes. Pathways related to the cell cycle and proliferation were the most enriched after pargyline treatment, particularly the p53 and PI3/AKT, MAPK and RAS pathways (−0.503, −0.33). although these cells were in the differentiation phase. […] Here we present the top 15 differentially expressed hair cell receptor genes. […] Collectively, these findings corroborate increasing hair cell differentiation with Lsd1 inhibition.

LCP organoids = test: Immunostaining of differentiated organoids for Atoh1 and Myo7a
Description: Immunochemistry. […] Nuclei were visualized using DAPI (Vector Laboratories).

Tcf/Lef = Tcf/Lef luciferase reporter assay of Wnt activity in inner ear organoids; settings: addition of pargyline to CHIR99021 or LYCH; luciferase at 48 hours
Procedure: Luciferase assay. Wnt activity was assessed in inner ear organoids using lentiviral vector expressing Firefly luciferase under the control of 7 Tcf binding sites (Fuerer and Nusse, 2010). Cochlear progenitor cells were dissected from sensory epithelia of wild-type neonatal mice using the established protocol described above (McLean et al., 2017). Dissociated cells were resuspended in proliferation media contain poly brene (Sigma) and lentivirus reporter (7TFC, Addgene #24307) and plated in 96 well plate coated with matrigel for 12-16 hours, [adapted from (Maru et al., 2016)]. The following day, media (containing dead cells and virus) was aspirated and a top layer of matrigel applied to the adherent cells and allowed to solidify, followed by addition of proliferation media. Media was changed every 2 days for 10 days as organoids developed. At day 10, media was changed to differentiation conditions with removal of growth factors and treatment with drug combinations described above. […] Luciferase was measured at 48 hours and normalized to total protein concentration.
Active canonical Wnt signaling is facilitated by the nuclear translocation of β-catenin, which binds with transcription factors of the Tcf/Lef family to activate transcription. […] We also analyzed Wnt activity in the treated cells using a Tcf/Lef reporter assay.

Atoh1 = test: qRT-PCR of Atoh1 in differentiated LCP organoids; settings: D10, pargyline-treated cells relative to standard treatment
Procedure: Differentiation of LCPs into a hair cell lineage. […] To analyze the effect of the Lsd1 inhibitors, the LCPs were treated with the small molecules combined with a differentiation drug cocktail, pargyline and CHIR99021 or CHIR99021 at 1, 2, 4, and 10 days (McLean et al., 2017).
RNA extraction and PCR. For the LCPs, the organoids were treated with Cell Recovery Solution for at 1 hour and TrypleE for 20 minutes, then frozen in RLT buffer. RNA extractions were performed using the RNeasy Micro Kit (QIAGEN) and cDNA generated using ImProm-II Reverse Transcription Kit (Promega). TaqMan Real-Time PCR was performed in triplicates using the TaqMan Gene Expression Master Mix (ThermoFisher Scientific) on a StepOne Real-Time PCR machine (ThermoFisher Scientific). Ordinary One-way Anova was used to assess statistical significance. A minimum of three biologically distinct samples were analyzed for each condition.
We next tested the effect of Lsd1 inhibition on hair cell differentiation. In this assay, after the cells were expanded into organoids during the initial proliferation phase, differentiation was initiated using the combination of CHIR99021 and LY411575 and allowed to progress for 10 days (DO to D10). Organoids were monitored for the development of hair cells using FACS and qRT-PCR. […] Conversely, Myo7a expression increases throughout development and is a key marker of mature hair cells. […]

[1] = D10 with pargyline compared to untreated
[2] = pargyline-treated samples, p<0.05

C#CCN(C)Cc1ccccc1 [pargyline, N-Methyl-N-propargylbenzylamine]
genes differentially expressed compared to the undifferentiated (D0) (LCPs; D10+pargyline samples versus D0): ~3365 genes | genes downregulated (LCPs; [1]): 330 genes | genes upregulated (LCPs; [1]): 144 genes | genes with altered expression (LCPs; D10 with pargyline compared to untreated, padj<0.05, fold change >1.25): approximately 474 genes | gene set enrichment score, development of auditory receptors (GO:0060117) (LCPs; GSEA after pargyline treatment, p<0.1): 0.62 | top 15 differentially expressed Wnt target genes: number downregulated (LCPs; [2]): 13 genes | top 15 differentially expressed Wnt target genes: number upregulated (LCPs; [2]): 2 genes | immunostaining for Atoh1 and Myo7a (LCP organoids): almost uniformly positive | Tcf/Lef activity (Tcf/Lef): no significant difference | mRNA levels of Atoh1 (Atoh1): no difference
